Common to all, as to format: cell-based
Assay [1] relates to Staphylococcus aureus Smith. The assay is described as follows: MIC assay, modified agar dilution (CLSI), S. aureus Smith. To be noted: for susceptibility of S. aureus Smith based on MIC interpretive standards defined by CLSI: reference antibiotics; for MIC: Staphylococcus aureus, agar dilution, 35° C., 16-20 hr, lowest concentration that completely inhibited growth, read-out: S_aureus_Smith_WT_MIC. The essentials: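 Strains were spotted at about 1×10^4 CFU onto compound-containing Mueller Hinton agar (two-fold series, 128-0.001 μg/mL), horse blood 5% added for pneumococcus and enterococcus. MIC read after 16-20 hr at 35 °C, following a modified CLSI agar dilution method.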
Background: In agar dilution, organisms are placed on agar that contains the substance at set levels.

Assay [2] deals with Enterococcus faecium A2373. Kind of assay: MIC assay, modified agar dilution (CLSI), E. faecium A2373. The note with it: reference antibiotics. The protocol: (§1) The potency of antibacterial agents was measured using the Minimal Inhibitory Concentration (MIC) assay. The assay measures the ability of test agents to inhibit the growth of bacteria on agar-containing medium.
(§2) The bacterial test strains used were exemplified by Staphylococcus aureus Smith, Enterococcus faecium A2373, Streptococcus pneumoniae IID554, and Escherichia coli ATCC 25922. All strains were maintained as frozen stocks held at −80° C. in skim milk. Other bacterial test strains are well known to those skilled in the art and can be used for testing.
(§3) Mueller Hinton Agar (MHA BBL; Becton Dickinson and Company, Sparks, Md.) was used as the medium. MHA was supplemented with 5% defibrinated horse blood (DHB; Nippon Biotest Laboratories inc.) to support the growth of S. pneumoniae and E. faecium.
(§4) MIC values were determined using a modified agar dilution procedure described by the Clinical and Laboratory Standards Institute (CLSI; Methods for Dilution Antimicrobial Susceptibility Tests for Bacteria That Grow Aerobically; Approved Standard—Eighth Edition. CLSI document M07-A8 [ISBN 1-56238-689-1]. Clinical and Laboratory Standards Institute, 940 West Valley Road, Suite 1400, Wayne, Pa. 19087-1898 USA, 2009).
(§5) Stock solutions (6.4 mgmL) of test compounds were prepared in 100% ultrapure dimethyl sulfoxide (DMSO; source) on the day of the assay. […]

For assay [3], the system named is Streptococcus pneumoniae IID554. Kind of assay: MIC assay, modified agar dilution (CLSI), S. pneumoniae IID554. The note with it: for susceptibility of S. pneumoniae IID554 based on MIC interpretive standards defined by CLSI: reference antibiotics; for Strep_Pn_IID554_WT_MIC: agar dilution, MHA with 5% defibrinated horse blood. The protocol: as §1, §2, §3, §4
(§6) Stock solutions (6.4 mgmL) of test compounds were prepared in 100% ultrapure dimethyl sulfoxide (DMSO; source) on the day of the assay. Subsequent serial dilutions were performed to generate solutions with concentrations ranging from 6.4 to 0.0002 mgmL in 100% DMSO.
Agar medium containing test compound was prepared by adding the dilutions of antimicrobial solution to molten MHA at a temperature of 45-50° C. The agar and antimicrobial solution were mixed thoroughly, poured into petri dishes, and allowed to solidify at room temperature. The final concentration of test compounds in the MHA medium ranged from 128 to 0.001 μg/mL with two-fold dilutions. MHA plates lacking antibacterial compound were used for growth controls.
Prior to susceptibility testing, the bacterial isolates were removed from frozen storage, thawed at room temperature, sub-cultured to MHA medium and incubated overnight at 35° C. S. pneumoniae and E. faecium were subcultured on MHA supplemented with 5% DHB at 35° C. with […]. Colonies from each plate were suspended in normal saline. This suspension was adjusted to the turbidity of a 0.5 McFarland standard, 1-2×10^8 colony forming units (CFU) per mL, and diluted 100-fold to 1-2×10^6 CFUmL.
Suspensions of bacterial cultures were applied to the surface of MHA plates containing test compound as well as to a growth control plate lacking test compound using an inoculum-replicating device with 4 mm pins. The replicating device applied 5 uL of the bacterial suspension such that each spot contained approx. 1×10^4 CFU. […]

The subject of a further assay is A_bau_IID876. Kind of assay: MIC assay, modified agar dilution (CLSI), A_bau_IID876. The protocol: as §1, §3, §4, §6
(§7) Agar medium containing test compound was prepared by adding the dilutions of antimicrobial solution to molten MHA at a temperature of 45-50° C. […]

Assay [4] deals with Pseudomonas aeruginosa PAO1. The assay is described as follows: MIC assay, modified agar dilution (CLSI), P. aeruginosa PAO1. The protocol:
as §1, §3, §4, §6, §7

Assay [5] concerns Escherichia coli ATCC 25922. Kind of assay: MIC assay, modified agar dilution (CLSI), E. coli ATCC 25922. The protocol: as §1, §2, §3, §4, §5

For `CN[C@H](CC(C)C)C(=O)N[C@H]1C(=O)N[C@@H](CC(N)=O)C(=O)N[C@H]2C(=O)N[C@H]3C(=O)N[C@H](C(=O)N[C@H](C(=O)O)c4cc(O)cc(O)c4-c4cc3ccc4O)[C@H](O)c3ccc(c(Cl)c3)Oc3cc2cc(c3O[C@@H]2O[C@H](CO)[C@@H](O)[C@H](O)[C@H]2O[C@H]2C[C@](C)(N)[C@H](O)[C@H](C)O2)Oc2ccc(cc2Cl)[C@H]1O` [vancomycin, reference compound], the “susceptibility of S. aureus Smith based on MIC interpretive standards defined by CLSI” value in assay [1] is on record as “susceptible”. The “susceptibility of E. faecium A2373” value in assay [2] is listed as “resistant”. Also, the “susceptibility of S. pneumoniae IID554 based on MIC interpretive standards defined by CLSI” value in assay [3] is “susceptible”.

On to `CC(=O)NC[C@H]1CN(c2ccc(N3CCOCC3)c(F)c2)C(=O)O1` [linezolid, reference compound], for which the “susceptibility of S. aureus Smith based on MIC interpretive standards defined by CLSI” value in assay [1] is “susceptible”. In addition, the “susceptibility of E. faecium A2373” value in assay [2] was “susceptible”. The “susceptibility of S. pneumoniae IID554 based on MIC interpretive standards defined by CLSI” value in assay [3] was “susceptible”.

On to `COc1ccc2ncc(F)c(CCC34CCC(NCc5ccc6c(n5)NC(=O)CO6)(CC3)CO4)c2n1.Cl` [Example 18, 6-((1-(2-(3-Fluoro-6-methoxy-1,5-naphthyridin-4-yl)ethyl)-2-oxabicyclo[2.2.2]octan-4-ylamino)methyl)-2H-pyrido[3,2-b][1,4]oxazin-3(4H)-one Hydrochloride], for which the A_bau_IID876_WT_MIC with A_bau_IID876 worked out at 0.500 µg/mL. The MIC in assay [1] amounted to 0.016 µg/mL. Further, the Strep_Pn_IID554_WT_MIC in assay [3] was found to be 0.0630 µg/mL. This molecule also yielded a P_ae_PAO1_WT_MIC in assay [4] of 4.00 µg/mL. The same molecule showed an E_coli_ATCC25922_WT_MIC in assay [5] of 1.00 µg/mL.

Consider `COc1ccc2ncc(F)c(CC(O)C34CCC(NCc5ccc6c(n5)NC(=O)CO6)(CC3)CO4)c2n1.Cl` (single isomer, unassigned) [Example 20a, 6-((1-(2-(3-Fluoro-6-methoxy-1,5-naphthyridin-4-yl)-1-hydroxyethyl)-2-oxabicyclo[2.2.2]octan-4-ylamino)methyl)-2H-pyrido[3,2-b][1,4]oxazin-3(4H)-one Hydrochloride], for which the A_bau_IID876_WT_MIC with A_bau_IID876 was determined as 1.00 µg/mL. Besides, the MIC in assay [1] is 0.063 µg/mL. Moreover, the Strep_Pn_IID554_WT_MIC in assay [3] was 0.250 µg/mL. The molecule also gave a P_ae_PAO1_WT_MIC in assay [4] of 16.0 µg/mL. Further, the E_coli_ATCC25922_WT_MIC in assay [5] was determined as 4.00 µg/mL.

(Values after US20140243302A1, “BRIDGED BICYCLIC COMPOUNDS FOR THE TREATMENT OF BACTERIAL INFECTIONS” (priority 2011, published 2014).)
